Measured values from patent publication US9024044B2, “Heteroarylcarboxylic acid ester derivative” (Ajinomoto Co., Inc., priority 2012, dated 2015).
Counter-ions that a name gives are not always drawn.

Assays:
Format in all cases: biochemical
human trypsin [1] = test: Measurement of trypsin inhibitory activity; settings: substrate Boc-Phe-Ser-Arg-AMC, Tris-HCl pH 8.0, Dixon plot
Description: (§1) Measurement of Trypsin Inhibitory Activity
(§2) Using a 96 well plate (#3915, Costar), a test compound (25 μL) was mixed with 20 μM fluorescence enzyme substrate (Boc-Phe-Ser-Arg-AMC, 50 μL) mixed with 200 mM Tris-HCl buffer (pH 8.0), and human trypsin (Sigma, 25 μL) was added. Using a fluorescence plate reader fmax (Molecular Devices, Inc.), the reaction rate was measured from the time-course changes at excitation wavelength 355 nm and fluorescence wavelength 460 nm. The Ki value was calculated from the concentration of the test compound, reciprocal of reaction rate, and Km value of the enzyme substrate, and by using Dixon plot.

[2] = molecular target: recombinant human enteropeptidase (Homo sapiens (Human), UniProt P98073); test: Measurement of enteropeptidase inhibitory activity; settings: substrate Gly-Asp-Asp-Asp-Asp-Lys-β-Naphtylamide, Tris-HCl pH 8.0, Dixon plot
Description: Measurement of Enteropeptidase Inhibitory Activity
Using a 96 well plate (#3915, Costar), a test compound (25 μL), 400 mM Tris-HCl buffer (pH 8.0, 25 μL) and 0.5 mg/mL fluorescence enzyme substrate (Gly-Asp-Asp-Asp-Asp-Lys-β-Naphtylamide, 25 μL) were mixed, and recombinant human enteropeptidase (R&D Systems, Inc., 25 μL) was added. Using a fluorescence plate reader fmax (Molecular Devices, Inc.), the reaction rate was measured from the time-course changes at excitation wavelength 320 nm and fluorescence wavelength 405 nm. The Ki value was calculated from the concentration of the test compound, reciprocal of reaction rate, and Km value of the enzyme substrate, and by using Dixon plot.

human trypsin [3] = molecular target: human trypsin (Homo sapiens, UniProt P07477); test: Measurement of trypsin inhibitory activity; settings: substrate Boc-Phe-Ser-Arg-AMC, Tris-HCl pH 8.0, Dixon plot
Description: as §1, §2

Sequence of recombinant human enteropeptidase (P98073 whole entry): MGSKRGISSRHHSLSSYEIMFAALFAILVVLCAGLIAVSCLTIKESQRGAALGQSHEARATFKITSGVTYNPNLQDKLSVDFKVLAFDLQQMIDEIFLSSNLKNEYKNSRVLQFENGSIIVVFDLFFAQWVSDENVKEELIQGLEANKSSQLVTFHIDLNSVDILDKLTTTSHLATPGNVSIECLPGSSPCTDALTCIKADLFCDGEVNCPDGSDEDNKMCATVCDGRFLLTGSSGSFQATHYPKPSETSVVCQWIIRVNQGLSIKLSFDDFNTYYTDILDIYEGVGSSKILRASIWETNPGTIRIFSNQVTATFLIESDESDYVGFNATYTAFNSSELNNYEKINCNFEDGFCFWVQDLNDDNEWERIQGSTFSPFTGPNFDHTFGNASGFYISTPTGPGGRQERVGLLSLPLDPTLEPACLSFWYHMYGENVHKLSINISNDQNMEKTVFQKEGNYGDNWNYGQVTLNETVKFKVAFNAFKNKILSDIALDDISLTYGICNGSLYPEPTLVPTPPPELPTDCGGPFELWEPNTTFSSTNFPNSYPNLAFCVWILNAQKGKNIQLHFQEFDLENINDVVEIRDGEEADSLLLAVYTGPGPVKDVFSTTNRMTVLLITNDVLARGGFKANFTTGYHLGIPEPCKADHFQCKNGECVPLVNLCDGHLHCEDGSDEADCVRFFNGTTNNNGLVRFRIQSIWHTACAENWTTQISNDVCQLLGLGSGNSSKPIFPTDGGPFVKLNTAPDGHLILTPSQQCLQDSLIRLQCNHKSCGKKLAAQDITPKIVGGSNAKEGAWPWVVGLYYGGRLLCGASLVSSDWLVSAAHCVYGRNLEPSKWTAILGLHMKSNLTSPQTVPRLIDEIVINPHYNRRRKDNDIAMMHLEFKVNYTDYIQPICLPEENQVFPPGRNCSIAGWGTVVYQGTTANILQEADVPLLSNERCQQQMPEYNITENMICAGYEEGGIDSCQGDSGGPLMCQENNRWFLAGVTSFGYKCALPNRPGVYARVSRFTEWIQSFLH

`CC(C)(Cc1ccc(C(=O)Oc2ccc(C(=N)N)cc2F)s1)C(=O)NCC(=O)O` [Compound 3] showed a Ki (human trypsin [1]) of 0.42 nM and a Ki [2] of 0.29 nM.
For `CCCN(CC(=O)O)C(=O)C(C)(C)Cc1ccc(C(=O)Oc2ccc(C(=N)N)cc2F)s1` [Compound 10, N-{3-[5-(4-amidino-2-fluoro-phenoxycarbonyl)thiophen-2-yl]-2,2-dimethylpropionyl}-N-propylglycine hydrochloride], the Ki (human trypsin [1]) was 1.5 nM and the Ki [2] was 0.49 nM.
With `CCC(CC)(Cc1ccc(C(=O)Oc2ccc(C(=N)N)cc2F)s1)C(=O)N[C@H](C(=O)O)C(C)C` [Compound 13] the Ki (human trypsin [1]) was 5.18 nM and the Ki [2] was 1.56 nM.
For `CCC(CC)(Cc1ccc(C(=O)Oc2ccc(C(=N)N)cc2F)s1)C(=O)N[C@@H](Cc1ccccc1)C(=O)O` [Compound 16], the Ki (human trypsin [1]) was 8.3 nM and the Ki [2] was 1.1 nM.
`C=CCN(CCS(=O)(=O)O)C(=O)C(C)(C)Cc1ccc(C(=O)Oc2ccc(C(=N)N)cc2F)s1` [Compound 23, N-allyl-N-{3-[5-(4-amidino-2-fluoro-phenoxycarbonyl)-thiophen-2-yl]-2,2-dimethylpropionyl}taurine] gave a Ki (human trypsin [1]) of 3.17 nM and a Ki [2] of 1.81 nM.
`CC[C@H](NC(=O)C(CC)(CC)Cc1ccc(C(=O)Oc2ccc(C(=N)N)cc2F)s1)C(=O)O` [Compound 28] showed a Ki (human trypsin [1]) of 1.93 nM and a Ki [2] of 0.65 nM.
`CCC[C@H](NC(=O)C(CC)(CC)Cc1ccc(C(=O)Oc2ccc(C(=N)N)cc2F)s1)C(=O)O` [Compound 29] was tested, and the Ki (human trypsin [1]) was 3.84 nM and the Ki [2] was 1.18 nM.
Compound `CCC(CC)(Cc1ccc(C(=O)Oc2ccc(C(=N)N)cc2F)s1)C(=O)NCCCC(=O)O` [Compound 30] has a Ki (human trypsin [1]) of 2.73 nM and a Ki [2] of 0.94 nM.
For `CC(C)(Cc1ccc(C(=O)Oc2ccc(C(=N)N)cc2F)s1)C(=O)Nc1ccc(C(=O)O)cc1` [Compound 31], the Ki (human trypsin [1]) was 2.89 nM and the Ki [2] was 1.08 nM.
In the case of `CC(C)(Cc1ccc(C(=O)Oc2ccc(C(=N)N)cc2F)s1)C(=O)Nc1cccc(C(=O)O)c1` [Compound 32], the Ki (human trypsin [1]) is reported as 0.7 nM and the Ki [2] is reported as 1.43 nM.
Compound `CCC(CC)(Cc1ccc(C(=O)Oc2ccc(C(=N)N)cc2F)s1)C(=O)N[C@@H]1COC(=O)C1` [Compound 34] has a Ki (human trypsin [1]) of 2.73 nM and a Ki [2] of 2.56 nM.
With `CC(C)(Cc1ccc(C(=O)Oc2ccc(C(=N)N)cc2F)s1)C(=O)N1CCC[C@H]1CC(=O)O` [Compound 41] the Ki (human trypsin [1]) was 3.88 nM and the Ki [2] was 1.58 nM.
Compound `CCC(CC)(Cc1ccc(C(=O)Oc2ccc(C(=N)N)cc2F)s1)C(=O)N[C@H](CCC(=O)O)C(=O)O` [Compound 43] has a Ki (human trypsin [1]) of 1.96 nM and a Ki [2] of 0.42 nM.
Compound `CCC(CC)(Cc1ccc(C(=O)Oc2ccc(C(=N)N)cc2F)s1)C(=O)N[C@@H](CC(N)=O)C(=O)O` [Compound 44] has a Ki (human trypsin [1]) of 1.69 nM and a Ki [2] of 0.67 nM.
Work on `CC(C)(Cc1ccc(C(=O)Oc2ccc(C(=N)N)cc2F)s1)C(=O)Nc1ccc(O)c(C(=O)O)c1` [Compound 47] yielded a Ki (human trypsin [1]) of 0.92 nM and a Ki [2] of 0.53 nM.
`CC[C@H](C)[C@@H](CC(=O)O)NC(=O)C(CC)(CC)Cc1ccc(C(=O)Oc2ccc(C(=N)N)cc2F)s1` [Compound 49, N-{3-[5-(4-amidino-2-fluoro-phenoxycarbonyl)thiophen-2-yl]-2,2-diethylpropionyl}-beta-homoisoleucine hydrochloride] showed a Ki (human trypsin [1]) of 1.97 nM and a Ki [2] of 3.26 nM.
With `CCC(CC)(Cc1ccc(C(=O)Oc2ccc(C(=N)N)cc2F)s1)C(=O)NCc1ccc(C(=O)O)cc1` [Compound 53] the Ki (human trypsin [1]) was 9.27 nM and the Ki [2] was 2.69 nM.
`CC(C)(Cc1ccc(C(=O)Oc2ccc(C(=N)N)cc2F)s1)C(=O)NC1(C(=O)O)CCC1` [Compound 56] gave a Ki (human trypsin [1]) of 1.49 nM and a Ki [2] of 0.51 nM.
`CC(C)(Cc1ccc(C(=O)Oc2ccc(C(=N)N)cc2F)s1)C(=O)NC1(C(=O)O)CC1` [Compound 57] was tested, and the Ki (human trypsin [1]) was 1.01 nM and the Ki [2] was 0.67 nM.
Compound `CCC(CC)(Cc1ccc(C(=O)Oc2ccc(C(=N)N)cc2F)s1)C(=O)NCCCCC(=O)O` [Compound 62] has a Ki (human trypsin [1]) of 5.17 nM and a Ki [2] of 0.98 nM.
Compound `CC(C)(Cc1ccc(C(=O)Oc2ccc(C(=N)N)cc2F)s1)C(=O)NCCC#N` [Compound 63] has a Ki (human trypsin [1]) of 3.65 nM and a Ki [2] of 2.9 nM.
`CC(C)(Cc1ccc(C(=O)Oc2ccc(C(=N)N)cc2F)s1)C(=O)NCc1nnn[nH]1` [Compound 65] was tested, and the Ki (human trypsin [1]) was 0.75 nM and the Ki [2] was 0.53 nM.
`CC(C)(Cc1ccc(C(=O)Oc2ccc(C(=N)N)cc2F)s1)C(=O)N(CC(=O)O)CC1CC1` [Compound 76] showed a Ki (human trypsin [1]) of 2.01 nM and a Ki [2] of 0.67 nM.
`CCC(CC)(Cc1ccc(C(=O)Oc2ccc(C(=N)N)cc2F)s1)C(=O)NCC(=O)NCC(=O)O` [Compound 77] showed a Ki (human trypsin [1]) of 1.42 nM and a Ki [2] of 0.69 nM.
Compound `CC(C)(Cc1ccc(C(=O)Oc2ccc(C(=N)N)cc2F)s1)C(=O)N[C@H]1CC[C@H](C(=O)O)CC1` [Compound 78] has a Ki (human trypsin [3]) of 2.57 nM and a Ki [2] of 1.53 nM.
In the case of `CCC(CC)(Cc1ccc(C(=O)Oc2ccc(C(=N)N)cc2F)s1)C(=O)NC1(C(=O)O)CC1` [Compound 79], the Ki (human trypsin [3]) is reported as 2.19 nM and the Ki [2] is reported as 1.12 nM.
`CCC(CC)(Cc1ccc(C(=O)Oc2ccc(C(=N)N)cc2F)s1)C(=O)NC1(C(=O)O)CCC1` [Compound 80] showed a Ki (human trypsin [1]) of 4.67 nM and a Ki [2] of 1.33 nM.
In the case of `CCC(CC)(Cc1ccc(C(=O)Oc2ccc(C(=N)N)cc2F)s1)C(=O)NCc1nnn[nH]1` [Compound 81], the Ki (human trypsin [1]) is reported as 3.54 nM and the Ki [2] is reported as 1.2 nM.
